Here are results for 12 compounds from patent US6054441A, “Oxypurine nucleosides and their congeners, and acyl derivatives thereof, for improvement of hematopoiesis” (priority 1995, dated 2000).

Each structure is given as a SMILES string. Like-named read-outs stand apart in the source and are kept apart here.

Assay [1] has as its system hematopoiesis in normal mice. Description: Hematopoiesis in normal mice (Example 44). The format is in vivo, Balb/C mice. Here is the method:
Normal, otherwise untreated, female Balb/C mice weighing approximately 20 grams each received a total of 4 or 9 0.4 ml intraperitoneal injections (one per day) of either Tween-80 (0.2%) (controls), palmitoylguanosine (2.5 μmoles/mouse/day), or palmitoyldeoxyinosine (2.5 μmoles/mouse/day). Twenty-four hours after the 4th or 9th treatment, groups of 5 or 6 animals from each of the 3 groups were bled and then sacrificed by cervical dislocation. Spleens were removed and weighed, and complete blood cell counts performed.

For assay [2], the system named is hematopoietic recovery after cyclophosphamide. Description: Hematopoietic recovery after cyclophosphamide (Example 48). The format is in vivo, Balb/C mice. As to the method:
Cyclophosphamide (CP) (275 mg/kg, i.p.) was administered to 36 Balb/C female mice weighing approximately 20 grams each. Twenty four hours later and each day thereafter for a total of 4 or 6 days, mice were given a 0.4 ml i.p. injection of either physiological saline (controls), palmitoyldeoxyinosine (2.5 μmoles/mouse), or palmitoylxanthosine (2.5 μmoles/mouse). On days 5 and 7 following CP administration 6 of the 12 animals in each of the 3 groups were bled and then sacrificed by cervical dislocation. Spleens were removed and weighed, and complete blood cell counts performed.

Assay [3] shares this test system. The experiment in a line: Hematopoietic recovery after cyclophosphamide (Example 50). The format is in vivo, Balb/C mice. Conditions: day 5; 2 μmoles/mouse. As to the method:
Cyclophosphamide (CP) (275 mg/kg, i.p.) was administered to 96 Balb/C female mice weighing approximately 20 grams each. Twenty-four hours later and each day thereafter mice were given a 0.4 ml i.p. injection of either Tween-80 (0.2%) (controls), palmitoyldeoxyguanosine (2 μmoles/mouse), palmitoyldeoxyinosine (2 μmoles/mouse), palmitoylacyclovir (2 μmoles/mouse), palmitoylarabinosylguanine (2 μmoles/mouse), palmitoylarabinosylhypoxanthine (2 μmoles/mouse), monopalmitoylguanosine 2',3'-acyclic dialcohol (2 μmoles/mouse), and palmitoyl-8-thioguanosine (2 μmoles/mouse). On days 5 and 7 following CP administration 6 animals in each of the 8 groups were bled and then sacrificed by cervical dislocation. Spleens were removed and weighed, and complete blood cell counts performed.

Another assay has as its system mouse bone marrow cells. Conditions: cited from earlier work.
In assay [4] the test system is hematopoietic recovery after cyclophosphamide. Description: Hematopoietic recovery after cyclophosphamide (Example 64). Conditions: day 7. The format is in vivo, Balb/C mice. Here is the method:
Fourteen female Balb/C mice weighing approximately 20 grams each received a 0.4 ml i.p. injection of either N-isobutyryldeoxyguanosine (50 mg/kg/treatment) in a Tween vehicle (0.2% Tween-80 in saline) or vehicle alone one time daily for five days following a single injection of cyclophosphamide (CP) (250 mg/kg, i.p.). On day 7 following CP administration all fourteen animals were bled and then sacrificed by cervical dislocation. Spleens were removed and weighed, and complete blood cell counts performed.

For assay [5], the system named is blood cell counts after 5-FU. Description: Pretreatment, recovery after 5-fluorouracil (Example 60). The format is in vivo, Balb/C mice. Conditions: 7 days after 5-FU. As to the method:
(§1) Twelve female Balb/C mice weighing approximately 20 grams each received a 0.4 ml i.p. injection of either N-palmitoylguanine (25 mg/kg/treatment) in a Tween-DMSO vehicle (0.2% Tween-80 and 7.5% DMSO in saline) or vehicle alone one time daily for three days. On the fourth day 5-fluorouracil (5-FU; 150 mg/kg, i.p.) was administered to all twelve animals. On day 7 following 5-FU administration all twelve of these animals were bled and then sacrificed by cervical dislocation. Six untreated mice were also bled and sacrificed to provide data on normal (basal) values. Spleens were removed and weighed, and complete blood cell counts performed.

Assay [6] deals with blood cell counts after cyclophosphamide. The experiment in a line: Recovery after cyclophosphamide (Example 61). The format is in vivo, Balb/C mice. Conditions: 7 days after CP. Here is the method:
as §1, with “five days following a single injection of cyclophosphamide (CP) (250” for “three days. On the fourth day 5-fluorouracil (5-FU; 150”, “i.p.).” for “i.p.) was administered to all twelve animals.”, “CP” for “5-FU”

The subject of assay [7] is Interleukin-3 dependent bone marrow cells. Conditions: 10 micrograms per milliliter.
Method: (§2) Bone marrow cells were obtained by flushing the femurs of three male B6D2F1 mice. The cells were plated at 5.0×10^5 /ml in MEM plus 10% fetal calf serum and 25 Units/ml of recombinant IL-3 for 24-48 hours. Non-adherent cells were then separated from adherent cells and maintained for an additional twelve days. IL-3 was washed from cells, and cells were plated in MEM plus 10% fetal calf serum in the presence or absence of IL-3 and with or without the addition of palmitoyldeoxyguanosine (10 micrograms per milliliter) or deoxyguanosine (10 micrograms per milliliter). Cells were counted using the trypan blue exclusion method, and the percent of dead cells (trypan blue positive) was determined at 24, 40, 60 and 84 hours following the wash.
Assay [8] has the same test system. The experiment in a line: cells. Conditions: Mus musculus, Bone marrow cell, read-out: % Dead Cells.
Method: as §2
The test system of assay [9] is human myeloid leukemia cell line (HL-60). Conditions: cited from earlier work; for conversion of immature blast cells into mature granulocytes: HL-60 in vitro; for effect on induced maturation of HL-60 cells: HL-60 with inducing agents.
For assay [10], the system named is hematopoietic recovery after cyclophosphamide. The experiment in a line: Hematopoietic recovery after cyclophosphamide (Example 37). The format is in vivo, Balb/C mice. Conditions: 5 μmoles/mouse/day i.p. 6 days; day 7; vs saline. As to the method:
Twenty-four hours later and each day thereafter for a total of 6 days, mice were given a 0.4 ml i.p. injection of either physiological saline (controls), guanine (5 μmoles/mouse/day), or guanosine (5 μmoles/mouse/day). On day 7 all 10 mice in each of the three groups were bled, and then sacrificed by cervical dislocation. Spleens were removed and weighed, and complete blood cell counts performed.

The test system is the same in assay [11]. Description: Hematopoietic recovery after cyclophosphamide, acyl chain length (Example 38). The format is in vivo, Balb/C mice. Conditions: day 7; guanosine 5, acyl derivatives 2.5 μmoles/mouse/day i.p. As to the method:
Cyclophosphamide (CP) (275 mg/kg, i.p.) was administered to 70 Balb/C female mice weighing approximately 20 grams each. Twenty-four hours later and each day thereafter for a total of 6 days, mice were given a 0.4 ml i.p injection of either physiological saline (controls), Tween 80 (0.2%), guanosine (5 μmoles/mouse/day in 0.2% Tween 80), or 2.5 μmoles per mouse per day of one of the following acylated derivatives of guanosine in 0.2% Tween 80: triacetylguanosine, octanoylguanosine, lauroylguanosine, or palmitoylguanosine. On day 7 following CP administration all 10 animals from each of the 7 groups were bled, and then sacrificed by cervical dislocation. Spleens were removed and weighed, and complete blood counts performed.

Setting [12] is: in presence of post-endotoxin serum.

For the compound `CCCCCCCCCCCCCCCC(=O)OC[C@H]1O[C@@H](n2cnc3c(=O)[nH]cnc32)C[C@@H]1O`, the spleen weight entry in assay [1] (day 5, 2.5 μmoles/mouse/day i.p.) is on record as “significantly greater”; in assay [1] (day 10, vs Tween 80), “significantly greater”; in assay [2] (day 5, 2.5 μmoles/mouse, vs controls) it was “significantly elevated”; in assay [2] (day 7, vs controls), “significantly increased”; in [3], “significantly elevated”. Besides, the neutrophil counts result in [1] (day 10, vs Tween 80) is listed as “significantly greater”; in [2] (day 5, vs controls) it was “significantly elevated”; in assay [2] (day 5, vs palmitoylxanthosine), “significantly elevated”. The total leukocyte counts entry is on record as “significantly greater” in assay [1] (day 10, vs Tween 80); “significantly elevated” in assay [2] (day 5, vs controls); “significantly elevated” in assay [2] (day 5, vs palmitoylxanthosine). Also, in assay [2] (day 7, vs controls), the Neutrophils entry was “significantly increased”. The total leukocytes entry in [2] (day 7, vs controls) is “significantly increased”.
Consider `Nc1nc2c(ncn2[C@@H]2O[C@H](COP(=O)(O)O)[C@@H](O)[C@H]2O)c(=O)[nH]1` [5'-guanosine monophosphate], for which the “number of colonies formed” value in the assay on mouse bone marrow cells (setting [12]) is “inactive”.
`CC(C)C(=O)Nc1nc2c(ncn2[C@H]2C[C@H](O)[C@@H](CO)O2)c(=O)[nH]1` [N-isobutyryldeoxyguanosine] returned a spleen weight in [4] (50 mg/kg/treatment, control 72.7±2.7, p<.001, in mg (unit assumed)) of 116.3±8.0. In assay [4] (control 1.2±0.2, p<.02), this compound registered a lymphocyte counts of 2.1±0.2. In addition, in assay [4] (control 3.3±0.4, p<.001), the total neutrophil counts came out at 6.6±0.5. Moreover, in assay [4] (control 4.6±0.5, p<.001), the “white blood cell counts” value is on record as 8.9±0.5.
As for `CCCCCCCCCCCCCCCC(=O)Nc1nc2nc[nH]c2c(=O)[nH]1` [NPG, N^2 -Palmitoylguanine], in [5] (25 mg/kg/treatment), the Lymphocytes is on record as 4.5 ± .5 K/μl, the Platelets was 787 ± 72 K/μl and the WBC was 4.6 ± .5 K/μl. Besides, the Spleen in assay [5] (25 mg/kg/treatment i.p., 3 days before) is reported as 79 ± 3 mg. In assay [6] (25 mg/kg/treatment), the Neutrophils was 5.5 ± .5 K/μl, the Platelets came out at 774 ± 734 K/μl and the WBC was 7.3 ± .6 K/μl. This compound displayed a Spleen in assay [6] (25 mg/kg/treatment i.p., 5 days) of 145 ± 13 mg.
With `Nc1nc2c(ncn2[C@@H]2O[C@@H]3COP(=O)(O)O[C@H]3[C@H]2O)c(=O)[nH]1` [cGMP, 3',5'-cyclic guanosine monophosphate], the “number of colonies formed” value in the assay with mouse bone marrow cells (in absence of post-endotoxin serum) is “no effect”; in the assay with mouse bone marrow cells (setting [12]), “increase in the number of colonies formed”.
For the compound `Nc1nc2c(ncn2[C@H]2C[C@H](O)[C@@H](CO)O2)c(=O)[nH]1` [dG, deoxyguanosine], the “prevention of apoptotic cell death due to IL-3 deprivation” value in assay [7] is “did nothing to prevent apoptotic cell death due to IL-3 deprivation”. Besides, the cytotoxicity at 10 µg/mL worked out at 15.5 ± 0.5% in assay [8] (24 h), 21.5 ± 3.5% in [8] (40 h), 46.3 ± 10.3% in [8] (60 h) and 68.3 ± 6% in [8] (84 h).
On to `CN(C)C=O` [dimethylformamide, reference compound], for which the “conversion of immature blast cells into mature granulocytes” value (from here on “conversion”) in assay [9] is “induced”.
For `Nc1nc2nc[nH]c2c(=O)[nH]1` [guanine], in [10], the Neutrophils result is “significantly more”, the spleen weight result is reported as “significantly heavier spleens” and the “total white blood cells” value is on record as “significantly more”. For the same compound, the “effect on induced maturation of HL-60 cells” value in assay [9] is on record as “prevented their induced maturation into functional neutrophils”.
`OC[C@H]1O[C@@H](n2cnc3c(O)ncnc32)[C@H](O)[C@@H]1O` [inosine]: in [9], the “effect on induced maturation of HL-60 cells” value is reported as “no effect on induced maturation”.
With `CCCCCCCCCCCC(=O)OC[C@H]1O[C@@H](n2cnc3c(=O)[nH]c(N)nc32)[C@H](O)[C@@H]1O` [laurolyguanosine, Lauroylguanosine], in assay [11], the spleen weight entry is “significantly larger spleens”.
For the compound `CC1=C(/C=C/C(C)=C/C=C/C(C)=C/C(=O)O)C(C)(C)CCC1` [retinoic acid, reference compound], the “conversion” value in assay [9] is given as “induced”.
With `NC(=O)c1csc([C@@H]2O[C@H](CO)[C@@H](O)[C@H]2O)n1` [tiazofurin, reference compound], in assay [9], the “conversion” value is given as “induced”.
